This passage reports TGI results from PubChem BioAssay (NCI).

Some test systems named below: SK-MEL-5 melanoma; CAKI-1 renal; SN12C renal; NCI-H226 lung; BT-549 breast; IGROV1 ovarian; SF-295 CNS; HT29 colon; MDA-MB-435; KM12 colon; PC-3 prostate; OVCAR-3 ovarian; NCI-H23 lung; M14 melanoma; T-47D breast; NCI/ADR-RES ovarian; K-562 leukemia; MALME-3M melanoma.
Experiment in all cases: DTP human tumour cell line panel, 48 h

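Five concentrations, 48 hours, 96-well plates. TGI is the concentration that stops growth completely.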

With `CC(=O)Nc1ncc2c(n1)-c1ccccc1OC2c1ccccc1` (configuration not stated), the TGI in the assay with SK-MEL-5 melanoma was greater than 100 µM; with CAKI-1 renal, 68.3 µM; with SN12C renal, greater than 100 µM; with NCI-H226 lung, 52.1 µM; with BT-549 breast it was greater than 100 µM; in the assay with IGROV1 ovarian it was greater than 100 µM. For the same compound, the TGI with SF-295 CNS, with HT29 colon, in the assay with MDA-MB-435, in the assay with KM12 colon, with PC-3 prostate and in the assay with OVCAR-3 ovarian was greater than 100 µM each time. For the same compound, the TGI in the assay with NCI-H23 lung is greater than 100 µM; with M14 melanoma, greater than 100 µM; with T-47D breast, 68.4 µM; in the assay on NCI/ADR-RES ovarian it was greater than 100 µM.
Consider `N#Cc1sc2c(c1OC(=O)c1ccc(Cl)cc1)c(=O)n(-c1ccccc1)c(=S)n2-c1ccccc1`, for which the TGI is 38.8 µM in the assay on SK-MEL-5 melanoma; 60.3 µM in the assay on CAKI-1 renal; 54 µM with SN12C renal; 86.7 µM with NCI-H226 lung; greater than 100 µM in the assay with K-562 leukemia; 40.5 µM with IGROV1 ovarian. In addition, the TGI with SF-295 CNS was determined as 65.9 µM; in the assay with HT29 colon it was 76.3 µM; with MALME-3M melanoma, 54.4 µM; with MDA-MB-435, 52.5 µM; in the assay on KM12 colon it was 32.5 µM; with PC-3 prostate, 80.2 µM. Also, the TGI was 64.2 µM in the assay with OVCAR-3 ovarian; 65.8 µM in the assay with NCI-H23 lung; 50.8 µM with M14 melanoma; greater than 100 µM in the assay on T-47D breast; 73.2 µM in the assay with NCI/ADR-RES ovarian.
For the compound `COc1ccc2nc3c(C)cc4ccccc4n3c2c1`, the TGI in the assay with SK-MEL-5 melanoma, with SN12C renal, in the assay with NCI-H226 lung, in the assay on K-562 leukemia, in the assay with BT-549 breast and in the assay on IGROV1 ovarian was greater than 100 µM throughout. Besides, the TGI in the assay on SF-295 CNS, with HT29 colon, in the assay with MALME-3M melanoma, with MDA-MB-435, in the assay with KM12 colon and in the assay on PC-3 prostate was greater than 100 µM each time. The TGI in the assay with OVCAR-3 ovarian, in the assay with NCI-H23 lung, with M14 melanoma, with T-47D breast and in the assay on NCI/ADR-RES ovarian was greater than 100 µM in each case.
Consider `CC(C)(C)C(O)CC(O)(C(F)(F)F)C(F)(F)F` (configuration not stated), for which the TGI in the assay with SK-MEL-5 melanoma, with CAKI-1 renal, with SN12C renal, in the assay on NCI-H226 lung, in the assay with K-562 leukemia and with IGROV1 ovarian was greater than 100 µM each time. In addition, the TGI with SF-295 CNS, with HT29 colon, with MALME-3M melanoma, in the assay with MDA-MB-435, with KM12 colon and with PC-3 prostate was greater than 100 µM in each case. For the same compound, the TGI in the assay with OVCAR-3 ovarian, with NCI-H23 lung, with M14 melanoma, in the assay with T-47D breast and with NCI/ADR-RES ovarian was greater than 100 µM each time.
In the case of `COC(=O)CNC(=O)CNC(=O)CSc1nnc(COc2ccc(Cl)cc2)n1-c1ccccc1`, the TGI in the assay on SK-MEL-5 melanoma is 41 µM; in the assay with CAKI-1 renal, 31.7 µM; in the assay with SN12C renal, greater than 100 µM; with NCI-H226 lung, greater than 100 µM; in the assay with K-562 leukemia it was greater than 100 µM; in the assay on BT-549 breast, 58.8 µM. Further, the total growth inhibition concentration (TGI) in the assay with IGROV1 ovarian was 39.4 µM; with SF-295 CNS, greater than 100 µM; in the assay on HT29 colon it was greater than 100 µM; with MALME-3M melanoma, 35.3 µM; with MDA-MB-435, 34.5 µM; with KM12 colon, 47.3 µM. For the same compound, the TGI is greater than 100 µM with PC-3 prostate; 37.6 µM in the assay on OVCAR-3 ovarian; greater than 100 µM in the assay on NCI-H23 lung; greater than 100 µM in the assay with M14 melanoma; greater than 100 µM in the assay with NCI/ADR-RES ovarian.
Consider `CCCCC(O)(c1ccccc1)C(O)(c1ccccc1)c1c(F)c(F)c(F)c(F)c1F` (configuration not stated), for which the TGI in the assay on SK-MEL-5 melanoma was 35.5 µM; in the assay with SN12C renal it was 31.1 µM; in the assay on NCI-H226 lung, 86 µM; in the assay on K-562 leukemia, 82.4 µM; in the assay with BT-549 breast it was greater than 100 µM; in the assay on IGROV1 ovarian, greater than 100 µM. For the same compound, the TGI in the assay with HT29 colon is 32.3 µM; in the assay on MALME-3M melanoma, 32.6 µM; in the assay with MDA-MB-435 it was greater than 100 µM; in the assay with PC-3 prostate it was 46.8 µM; with OVCAR-3 ovarian, 32.6 µM; in the assay on NCI-H23 lung, greater than 100 µM. The TGI was greater than 100 µM in the assay on M14 melanoma, greater than 100 µM in the assay with T-47D breast and 49.1 µM in the assay on NCI/ADR-RES ovarian.
As for `Cc1cn(CC2=NC3CCCCC3N2)c(=O)[nH]c1=O` (configuration not stated), the TGI in the assay with SK-MEL-5 melanoma, in the assay on SN12C renal, with NCI-H226 lung, in the assay with K-562 leukemia, in the assay on BT-549 breast and with IGROV1 ovarian was greater than 100 µM throughout. For the same compound, the TGI with SF-295 CNS, in the assay on HT29 colon, in the assay with MALME-3M melanoma, in the assay on PC-3 prostate, in the assay with NCI-H23 lung and with M14 melanoma was greater than 100 µM each time. For the same compound, the TGI in the assay on T-47D breast and with NCI/ADR-RES ovarian was greater than 100 µM throughout.
`Cc1ccc(C(=O)O)c(/C=C2\Cc3cc(C)cc(C)c3C2=O)c1`: the TGI in the assay on SK-MEL-5 melanoma, in the assay with CAKI-1 renal, in the assay on SN12C renal, in the assay with NCI-H226 lung, in the assay with K-562 leukemia and in the assay on BT-549 breast was greater than 100 µM in each case. In addition, the TGI in the assay on IGROV1 ovarian, with SF-295 CNS, in the assay on HT29 colon, in the assay on MALME-3M melanoma, with KM12 colon and with PC-3 prostate was greater than 100 µM each time. The TGI with OVCAR-3 ovarian and with T-47D breast was greater than 100 µM each time.

By TGI is commonly meant the concentration giving total growth inhibition. A lower TGI goes with greater sensitivity of the cells.
